Laboratory results published in patent US20070092454A1, “Oral composition containing morin” (Colgate-Palmolive Company, priority 2005, published 2007).

Test: LPO-CC Kamiya Bioscience kit anti-oxidant efficacy assay (methylene blue, optical density at 674 nm)
Assay type: biochemical
Settings: simple composition containing 1.0% by weight of active; compared with 1.0% vitamin E; FIG. 1; lower optical density at 674 nm = better efficacy
Description: Reaction processes in the kit used can be summarized as follows. Cumene hydroperoxide (CHO) is combined with an enzyme mixture of ascorbic oxidase and lipoprotein lipase in order to produce lipid peroxide. Samples and standards are then combined with a second reagent containing methyl carbamate (MCDP) and hemoglobin. In the presence of hemoglobin, lipid peroxides are converted to lipid alcohols which in turn convert the MCDP to methylene blue that can be read at 674 nm. This translates to decreased color intensity which is measured by spectroscopy at 674 nm. […] In other words, the lower the optical density reading the better the anti-oxidant efficacy.

Compound: O=c1c(O)c(-c2ccc(O)cc2O)oc2cc(O)cc(O)c12 [morin, 2′,3,4′,5,7-pentahydroxyflavone]
- anti-oxidative efficacy: anti-oxidative efficacy as good as positive control vitamin E
